Test results taken from patent US9149538B2, “Oligomer conjugates of heteropentacyclic nucleosides” (priority 2008, dated 2015).
Like-named read-outs stand apart in the source and are kept apart here.

How the values were obtained:
[1] = system: Influenza A/Hong Kong/8/68; assay: microbe, parasite or virus in culture; format: cell-based, influenza type A
in vitro = conditions: dog
BVDV NADL = assay: Anti-Bovine Diarrhea Virus (surrogate Hepatitis C) cytoprotection assay (XTT) in MDBK cells; format: cell-based, Bovine Viral Diarrhea virus; conditions: inhibition of virus-induced cell killing, 100 μM high test concentration
MDBK cells = conditions: read-out: TC50, cells plus drug only, XTT

Row | SMILES | EC50 ([1]; Influenza A virus, MDCK, MDCK/Influenza A/Hong Kong/8/68, inhibition of virus-induced cell killing, XTT, 100 μM high test concentration, read-out: EC50) | CC50 (in vitro; TC50, MDCK cells, cells plus drug only, XTT) | EC50 ([1]; read-out: EC50) | EC50 (BVDV NADL) | CC50 (MDCK cells) | CC50 (MDBK cells) | EC50 [1] | EC50 ([1]; Influenza A virus, MDCK) | EC50 (BVDV NADL; Bovine viral diarrhea virus isolates and strains, MDBK) | CC50 (MDCK cells; dog) | CC50 (in vitro; TC50)
1 | NC12CC3CC(CC(C3)C1)C2 [Amantadine, amantadine, reference compound] | 0.1 µM | > 10 µM | – | – | – | – | – | – | – | – | –
2 | COCCOCCOCCOCCOCCN(CCOCCOCCOCCOCCOC)C(=O)c1ncn([C@@H]2O[C@H](CO)[C@@H](O)[C@H]2O)n1 [Di-mPEG5-N-Ribavirin] | – | – | 5.5 µM | > 100 µM | 19.5 µM | > 100 µM | – | – | – | – | –
3 | COCCOCCOCCOCCOCCOCCOCCN(CCOCCOCCOCCOCCOCCOCCOC)C(=O)c1ncn([C@@H]2O[C@H](CO)[C@@H](O)[C@H]2O)n1 [Di-mPEG7-N-Ribavirin] | – | – | > 100 µM | > 100 µM | > 100 µM | > 100 µM | – | – | – | – | –
4 | NC(=O)c1ncn([C@@H]2O[C@H](CO)[C@@H](O)[C@H]2O)n1 [Ribavirin, ribavirin, reference compound] | – | – | – | 5.2 µM | – | – | 16.3 µM | 18.2 µM | 8.1 µM | 79 µM | 50 µM
5 | COCCOCCOCCNC(=N)c1ncn([C@@H]2O[C@H](CO)[C@@H](O)[C@H]2O)n1 [mPEG3-N-Ribamidine] | – | – | 67.8 µM | > 100 µM | > 100 µM | > 100 µM | – | – | – | – | –
6 | COCCOCCOCCOCCOCCNC(=O)c1ncn([C@@H]2O[C@H](CO)[C@@H](O)[C@H]2O)n1 [mPEG5-N-Ribavirin] | – | – | > 100 µM | > 100 µM | > 100 µM | > 100 µM | – | – | – | – | –
7 | COCCOCCOCCOCCOCCOCCNC(=N)c1ncn([C@@H]2O[C@H](CO)[C@@H](O)[C@H]2O)n1 [mPEG6-N-Ribamidine] | – | – | > 100 µM | > 100 µM | > 100 µM | 87.6 µM | – | – | – | – | –
8 | COCCOCCOCCOCCOCCOCCOCCNC(=N)c1ncn([C@@H]2O[C@H](CO)[C@@H](O)[C@H]2O)n1 [mPEG7-N-Ribamidine] | – | – | > 100 µM | > 100 µM | > 100 µM | > 100 µM | – | – | – | – | –
